Patent US12410147B2, “Surfactants” (Imperial College Innovations Limited, priority 2020, dated 2025)

Assays:
[1] = Resistance to hard water (ISO standard 1063); format: physicochemical; conditions: for appearance of the solutions in hard water stability tests (in words): all calcium concentrations; for Mean Stability: class from total score according to Table 3; for Total Score: sum of 15 appearance scores, CaCl2 6, 9 and 12 m equivalent Ca/L, five aliquots of 50 mg/ml mother solution
Experimental: These measurements were made according the standard protocol reported in ISO standard 1063. Calcium chloride was used as cation source at concentrations of 6, 9 and 12 m equivalent Ca/L (3.0, 4.5, 6.0 mM). A mother solution of surfactant with 50 mg/ml concentration was prepared in water at 20° C. In a 50 ml falcon-tube, a defined aliquot of mother solution was transferred and diluted up to 50 ml with the calcium solution. Five different aliquots of surfactant mother solution were tested: 5.0, 2.5, 1.2, 0.6 and 0.3 ml. In every test, the appearance of the sample was inspected and assigned a score according to Table 2. The scores of the 15 tests for each surfactant were summed and the final result was expressed as mean stability according to Table 3.
• Opalescent is a solution not clear but which objects can be seen. Cloudy is a solution not clear which objects cannot be seen through.

zein protein = test: Zein solubilisation study; conditions: 2 g zein, 40 ml of 0.5 wt % surfactant solution, 40° C., 12 h
Experimental: The applicability of surfactants in personal care products was studied by analysing their capacity to solubilise zein protein. In each test 2 g of zein protein was mixed with 40 ml of 0.5 wt % surfactant solution and the mixture was incubated at 40° C. for 12 h. The mixture was then centrifuged and the remaining solid zein was washed with 50 mL of water 5 times. The solid zein was dried for in an oven at 70° C. for 5 days and weighted. The zein solubilisation was evaluated as percentage of zein that was dissolved into the surfactant solution.

[2] = Solubility study in water (ISO standard 6839); format: physicochemical; conditions: for solubility in water (concentration solubilized): room temperature
Experimental: 10 ml of solution was poured into a 20 ml vial and allowed to cool until precipitation was observed. Other 10 ml of solution was poured into a 20 ml vial and kept at a higher temperature. The precipitated sample was slowly heated and the clear sample was slowly cooled. The temperature at which an appearance change occurred was considered the temperature of solubility at a specific surfactant concentration.

[3] = Critical micelle concentration, air-water-surfactant system, pendant drop method; format: physicochemical; conditions: 25° C., deionised water
Experimental: Concentrations that were evaluated for each surfactant varied depending on the solubility of the surfactant and the surface tension reduction observed during the analysis. The experiment was performed at 25° C. Deionised water (prepared using a Milli-Q system (Merck)) was used for each experiment. The pendant drop method was used to calculate the surface tension by using a Krüss DSA25. A drop of the solution was produced in the tip of a blunt metal needle (1.25 mm) until the drop reached its maximum size. After 10-15 seconds of equilibration, an image of the drop was captured using a digital camera. The drop was analyzed using the software Krüss EasyDrop Standard-Drop Shape Analysis (DSA1) v 1.92. The software uses the Young-Laplace equation to calculate the surface tension according to the drop deformation considering the effect of gravity and hydrostatic pressure. Critical micellar concentration (CMC) was obtained after plotting surface tension vs surfactant concentration. The CMC is calculated as the surfactant concentration where the initial straight line intersects the plateau in the graph.

protozoa microorganisms = format: cell-based; conditions: 30° C., 24 h, OD 440 nm
Experimental: The toxicity of different surfactants was analysed using a Protoxkit supplied by microbiotests quantify the inhibition of growth of protozoa microorganisms in the presence of the surfactants. Using the standard protocol, a dilution series of toxicant was prepared by serial 1:1 dilution with distilled water. 2 mL of each solution is placed in a UV cuvette. An inoculum of Protozoa was diluted to reach an OD of 0.04 at 440 nm then 40 μL of inoculum was added along a solution of 40 μL of nutrients in each dilution vials. The initial OD was measured for each vial and the vial was then incubated at 30° C. for 24 h. Inhibition was measured by the comparing the variation of initial and final OD.

[4] = system: E. coli in expressing the b-galactosidase; format: cell-based; conditions: 37° C., 30 min, OD 600 nm
Experimental: The toxicity of different surfactants was analysed using a Toxi-Chromo test kit supplied by EBPI to quantify the inhibition of E. coli in expressing the b-galactosidase in the presence of the surfactants. Using the standard protocol, a mother solution containing 1000 ppm of a surfactant was prepared. The bacteria inoculum was mixed with a reaction mixture, nutrients supplied with the kit and the toxicant. A further 15 samples at containing different amounts of the surfactant were prepared in the well plate through subsequent dilutions. The chromogen supplied with the kit was added in each well and the well plate was then incubated at 37° C. for 30 min. The optical density (OD) was read at 600 nm using a plate reader. The % inhibition was measured by the OD variation (which is associated a blue colour development). EC50 was measured by plotting and fitting the % inhibition and surfactant concentration.

[5] = Surface tension in octanol-water-surfactant system, drop volume method (ISO 9101 modified); format: physicochemical
From the text: The drop volume method was used to calculate the surface tension in the system following the ISO standard 9101 with some modifications. In each experiment a drop of aqueous solution of surfactant was slowly formed in the tip of a needle (d=1.82 mm) submerged in octanol using a syringe connected at a Krüss DSA25 drop shape analyser instrument. The drop formation was allowed to grow as close as possible the maximum volume at which it would detach from the needle. At this point, the drop was left to stabilize for 2 minutes and then was detached from the needle by providing a small amount of additional solution. A photo of the drop leaving the needle was captured using the camera connected to the Krüss DSA25. The diameter of the drop was measured, and the surface tension was calculated using the following equation: […]
Where γ is the surface tension (mN/m), V is the drop volume (cm^3), Δρ is the difference of density between water and octanol (g/cm^3), g is the acceleration due to gravity (cm/s^2), d is the outer diameter of the needle (cm), and f is a correction factor calculated using the following equation: […]
Surface tension at concentration 2 times the CMC in deionised water (prepared using a Milli-Q system (Merck)) are summarized in Table 6. […] In FIG. 2 the drops formation of a water/surfactant solution in octanol have been reported for the SAF-8, SAF-12 and SDBS at a concentration of surfactant double of the CMC. The SAF-8 show the lower surface tension due mostly to the high concentration of surfactant used ([…]).
SAF-8 was evaluated using a concentration 2 times the CMC, while SAF-12 was evaluated at 2, 4 and 8 times the CMC.

[6] = Foaming capacity (ISO 6964 with modifications); format: physicochemical; conditions: 0.2% surfactant, 50° C., after 5 minutes; for Foam height, hard water: 200 ppm CaCl2
Experimental: Foaming capacity was evaluated following the protocol set out in ISO 6964, with some modifications. In each test, 700 mL of surfactant solution containing 0.2% surfactant was prepared using deionized water or a hard water solution of distilled water with 200 ppm of CaCl2. The solutions were prepared by agitating the components for 60 minutes at 50° C. After 60 minutes, 50 mL of solution was poured in a 1000 mL glass measuring cylinder, which was then placed in a water bath that was heated to 50° C. 600 mL of the surfactant solution was poured into a chromatography column fitted with a stainless-steel needle at the egress. The column was placed over the measuring cylinder so that the tip of the needle was […] from the surfactant solution in the measuring cylinder. 450 mL of surfactant solution were poured from the column into the measuring cylinder. After pouring the solution, foam height was measured at 30 sec, 3 min, 5 min and 15 min.

[7] = surfactant concentration 12.5 % weight in water
[8] = surfactant concentration 15 % weight in water
[9] = surfactant concentration 17.5 % weight in water
[10] = surfactant concentration 20 % weight in water
[11] = surfactant concentration 22.5 % weight in water
[12] = deionised water in octanol, concentration 2 times the CMC
[13] = hard water (500 ppm CaCl2) in octanol, 2 times the CMC

SMILES	appearance of the solutions in hard water stability tests (in words) [1]	Mean Stability [1]	Total Score [1]	% of zein dissolved (zein protein)	temperature at which dissolution was observed [2, 7]	temperature at which dissolution was observed [2, 8]	temperature at which dissolution was observed [2, 9]	temperature at which dissolution was observed [2, 10]	temperature at which dissolution was observed [2, 11]	CMC [3]	EC50, inhibition of growth of protozoa microorganisms (protozoa microorganisms)	EC50, inhibition of E. coli in expressing the b-galactosidase [4]	Surface tension [5, 12]	Surface tension [5, 13]	Foam height, hard water [6]	Foam height, distilled water [6]	solubility in water (concentration solubilized) [2]	also measured
CCCCCCCCCCCCOC(=O)c1ccc(S(=O)(=O)O)o1 [SAF-12, Sulfonated Dodecyl Furoate]	remained clear	5 (75)	75	15.3 ± 0.26%	20-25 °C	20-25 °C	20-25 °C	20-25 °C	<0 °C	521 ppm	49.65 ± 5 ppm	63.5 ± 2.8 ppm	3.42 mN/m	4.51 ± 0.5 mN/m	10.35 ± 0.5 mm	7.8 ± 0.4 mm		temperature below which the surfactant would precipitate ([2]; 20% solution): below 20 °C; solubility in water (concentration soluble) ([2]; 24° C.): 20%; Surface tension ([5]; hard water (500 ppm CaCl2) in octanol, 4 times the CMC): 3.78 ± 0.45 mN/m; Surface tension ([5]; hard water (500 ppm CaCl2) in octanol, 8 times the CMC): 1.99 ± 0.27 mN/m
CCCCCCCCOC(=O)c1ccc(S(=O)(=O)O)o1 [SAF-8, Sulfonated Octyl Furoate]	remained clear	5 (75)	75	10.4 ± 0.98%	<0 °C	<0 °C	<0 °C	<0 °C	<0 °C	1330 ppm	673 ± 10 ppm	292 ± 13 ppm	2.65 mN/m	1.91 ± 0.25 mN/m	5 ± 0.5 mm	2.5 ± 0.7 mm	up to 140%	
CCCCCCCCCCCCOS(=O)(=O)[O-].[Na+] [SDS, sodium dodecyl sulfate, reference compound]	extensive precipitation in many tests	2 (19-37)	21								85.71 ± 3.8 ppm	123.7 ± 5.2 ppm	1.34 ± 0.28 mN/m		4.25 ± 0.4 mm	7.25 ± 0.4 mm		behaviour in hard water (in words) ([5]; hard water (500 ppm CaCl2)): significant agglomeration
CCCCCCCCCCCCCCCCOC(=O)c1ccc(S(=O)(=O)O)o1 [SAF-16, Sulfonated Hexadecyl Furoate]					>50 °C	>50 °C	>50 °C	>50 °C	>50 °C	60 ppm							0.05%	solubility in water (in words) ([2]; comparison of surfactants): very low solubility
